Reference: paper PMC6600523, “Interference with Amyloid-β Nucleation by Transient Ligand Interaction” (Molecules, 2019)
Like-named read-outs stand apart in the source and are kept apart here. Where a SMILES comes first, the peptide text is derived from it. [ ]: non-standard residue; d: D form.

Experiments:
Aβ42 [1] = biological target: T1, Aβ42 (Homo sapiens, UniProt P05067); experiment: Sedimentation velocity AUC with fluorescence detection, Aβ42 and D3 mixtures; type: binding; conditions: 0.33 μM FITC-Aβ42 with various D3 concentrations; 55 mM Tris-HCl, 50 mM NaCl pH 7.4, 0.01% Tw20; D3 concentration-dependent
T1 construct: purchased Bachem H-1368.1000
Experimental: All measurements were performed using an XL-A analytical ultracentrifuge (Beckman coulter, Brea, CA, USA). […] All samples were prepared in 20 mM sodium phosphate, 50 mM NaCl (pH 7.4) containing 0.0004% PEI (w/v). Samples were then loaded into 3-mm double-sector titanium cells (Nanolytics, Potsdam, Germany), with each sector containing a 100 μL sample. The detection system uses an excitation laser at 488 nm and an emission cut-off filter at 505 nm to collect fluorescence signals. The amplification factor was adjusted to the same value for all samples for comparability. […] Data was acquired at 20 nm radial resolution. After thorough thermal equilibration the centrifugation was carried out at 60,000 rpm (289,000× g) at 20 °C for 15 h. Carrier proteins, such as albumin and kappa casein, are usually recommended to minimize unspecific surface adsorption for fluorescence-based AUC [56]. All sedimentation profiles were subjected to the software package SEDFIT (version 15.01b) for data evaluation. The data was analyzed with the continuous distribution c(s) Lamm equation model to obtain the sedimentation coefficient distributions. Fitting parameters (Table S1) including the buffer density and viscosity were determined using Sednterp (version 20130813BETA). […] Final graphs were generated using GUSSI (version 1.2.1) and sedimentation coefficients were standardized to s-values in pure water at 20 °C (s20,w).

Aβ42 [2] = biological target: T1, Aβ42; experiment: Atomic force microscopy, morphologies of Aβ42 samples; type: biochemical; conditions: 20 mM sodium phosphate, 50 mM NaCl pH 7.4, 20 °C, AFM in air, AC mode
Experimental: At 48 h and 120 h, 10 μL samples were pipetted onto freshly cleaved mica, and were further incubated at room temperature for 30 min. Mica with deposited samples were rinsed with ultrapure water for three times and finally dried with nitrogen gas. Atomic force microscopy (AFM) imaging was carried out in air at room temperature, using silicon cantilevers (OMCL AC160 TS, Olympus, Tokyo, Japan) and a JPK NanoWizard 3 microscope (JPK Instruments AG, Berlin, Germany) in AC mode. The nominal tip diameter of the cantilever was 7 nm. AFM height images at 10 × 10 μm^2 and 1 × 1 μm^2 (both with a resolution of 1024 × 1024 pixel) for all samples were taken with a line rate of 1 Hz and respective scanning speeds of 22.55 μm/s and 2.48 μm/s. Data was processed with JPK NanoWizard SPM data processing software.

Aβ42 [3] = biological target: T1, Aβ42; experiment: Seeding experiment, ThT kinetics of seeded Aβ42; type: biochemical; conditions: 20 mM sodium phosphate, 50 mM NaCl pH 7.4, 20 °C
Experimental: The sample was then incubated quiescently at room temperature for 120 h. […] Samples were pipetted to a 96-well plate, with each well containing 200 μL samples. The plate was then covered with a sealing film. ThT fluorescence of all samples was recorded using the same device and parameters, as described above for ThT assays. All samples were prepared in duplicate. Final data was normalized and averaged based on the repetitions.

Aβ42 [4] = biological target: T1, Aβ42; experiment: ThT assay, fibrillation kinetics of Aβ42; type: biochemical; conditions: 50 mM NaCl pH 7.4, 20 °C, AmyloFit fit, triplicate
Experimental: ThT was added at a final concentration of 5 μM in all samples. The final volume of each sample was 200 μL. Samples were prepared on ice and were pipetted into a 96-well plate afterwards. The plate was sealed with a microplate sealing film. All measurements were conducted at 20 °C with a microplate reader (Infinite M200, Tecan, Männedorf, Switzerland). The fluorescence was recorded at an excitation wavelength (λex) of 445 nm and an emission wavelength (λem) of 485 nm every 30 min for 120 h. […] All samples were prepared in triplicate.
The ThT data was then subjected to the online server AmyloFit with a customized sigmoidal Equation (1) to determine the lag time tlag , and the half completion time of the aggregation process t1/2 , according to previous studies. (1) It=k0t+A/1+exp−kt−t1/2, where k0 represents the slope of the baseline, A is the amplitude, k denotes the apparent elongation rate constant. The lag time tlag can be derived from the intercept between the time axis and the tangent with slope k from the midpoint of the fitted sigmoidal curve, which is given by the following Equation (2):(2) tlag=t1/2−2/k

FITC-Aβ42 = biological target: T2, FITC-Aβ42 (Homo sapiens, UniProt P05067); experiment: Microscale thermophoresis, D3 titrated to FITC-Aβ42; type: binding
T2 construct: purchased Bachem M-2585.1000
Experimental: In detail, FITC-Aβ42 was dissolved in 20 mM sodium phosphate, 50 mM NaCl (pH 7.4—slightly alkali), 0.01% (v/v) Tw20 to obtain 80 nM stock solutions. 300 μM D3 was prepared in the same buffer. FITC-Aβ42 was then titrated with D3 solutions in 1:1 serial dilution steps to prepare 16 samples, in which the concentration of FITC-Aβ42 was kept constant at 40 nM, and the starting concentration of D3 was 150 μM. Samples were loaded into standard capillaries, and the thermophoresis was detected using a Monolith NT.115 (NanoTemper Technologies GmbH, Munich, Germany). The experiment was performed with 40% LED power and 60% microscale thermophoresis (MST) power. […] The final concentration of FITC-D3 in each sample was set to 40 nM. The LED power and MST power were adjusted to 30% and 60%, respectively. The on and off time for the IR laser was set to 30 s and 5 s. Since the working concentration of labeled molecules was rather low in this measurement, any signal loss due to surface adsorption might bias the data acquisition. Therefore trace amounts of Tw20 and PEI were used as additives in solution to minimize the unspecific surface adsorption of FITC-Aβ42 and FITC-D3 in capillaries, respectively. All measurements were conducted at 22 °C, and samples were prepared in triplicate.
The data was evaluated with PALMIST software (version 1.2.3) to obtain the dissociation constants. Changes in the normalized fluorescence ( ∆Fn ) with concentrations of the titrant were quantified and fitted with the 1:1 binding model available in the software using a 68.3% confidence interval. The graphic outputs were created using GUSSI (version 1.2.1).

[5] = 20 μM Aβ42 with (label D3) or without (label Aβ42) 2 μM D3, 20 mM sodium phosphate, 5 μM ThT
[6] = 20 μM Aβ42 with (label D3, 10:1) or without (label Aβ42) 2 μM D3, 55 mM Tris-HCl

T2 sequence (P05067 672-713 limits assumed): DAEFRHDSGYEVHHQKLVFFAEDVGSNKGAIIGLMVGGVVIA
T1 sequence (P05067 672-713 limits assumed): as above

CC(C)C[C@@H](NC(=O)[C@@H](CCCNC(=N)N)NC(=O)[C@H](NC(=O)[C@@H](CCCNC(=N)N)NC(=O)[C@H]1CCCN1C(=O)[C@H](N)CCCNC(=N)N)[C@H](C)O)C(=O)N[C@H](Cc1c[nH]cn1)C(=O)N[C@@H](C(=O)N[C@H](Cc1c[nH]cn1)C(=O)N[C@H](CCCNC(=N)N)C(=O)N[C@H](CC(N)=O)C(=O)N[C@H](CCCNC(=N)N)C(N)=O)[C@H](C)O [D3] (H-[dR][dP][dR][dT][dR][dL][dH][dT][dH][dR][dN][dR]-NH2)
s20,w of new species formed on incubating D3 with FITC-Aβ42 (Aβ42 [1]): 1.54 ± 0.11 S
Morphology of Aβ42 incubated with D3, 48 h (Aβ42 [2]; 40 μM Aβ42 with 4 μM D3 (0.1 equimolar), 48 h): no fibrils
Morphology of Aβ42 incubated with D3, 120 h (Aβ42 [2]; 40 μM Aβ42 with 4 μM D3, 120 h): did not stop the fibril formation
MST KD compared with SPR KD: 10 fold
Effect on ThT kinetics of Aβ42 with 1% seeds (Aβ42 [3]; 10 μM Aβ42, 1% seeds, 1 μM D3, compared with Aβ42 without D3): longer lag phase
Effect on ThT kinetics of Aβ42 with 5% seeds (Aβ42 [3]; 10 μM Aβ42, 5% seeds, 1 μM D3 (0.1-fold), slopes compared with Aβ42 with 5% seeds only): retardation of the elongation process
Half completion time t1/2 of fibrillation kinetics (Aβ42 [4]; [5]): 79.3 ± 2.3 h
Lag time tlag of fibrillation kinetics (Aβ42 [4]; [5]): 67.6 ± 3.8 h
Slope k of fibrillation kinetics (Aβ42 [4]; [5]): 0.18 ± 0.07
Half completion time t1/2 of fibrillation kinetics, Tris-HCl buffer (Aβ42 [4]; [6]): 74.5 ± 2.8 h
Lag time tlag of fibrillation kinetics, Tris-HCl buffer (Aβ42 [4]; [6]): 59.3 ± 2.2 h
Slope k of fibrillation kinetics, Tris-HCl buffer (Aβ42 [4]; [6]): 0.14 ± 0.04
Kd (FITC-Aβ42; KD for D3 and Aβ42 (summary of both MST setups), both possible setups): ~400 nM
Kd (FITC-Aβ42; MST, 40 nM FITC-Aβ42, D3 from 150 μM in 1:1 serial dilution, 20 mM sodium phosphate, 50 mM NaCl pH 7.4, 0.01% Tw20, 22 °C, 1:1 binding model (PALMIST), brackets = 68.3% confidence interval, triplicate, read-out: KD of D3 binding to FITC-Aβ42): 270 nM
Kd (FITC-Aβ42; MST, 40 nM FITC-Aβ42, 5 mM sodium phosphate, 50 mM NaCl pH 7.4, 0.01% Tw20, 22 °C, 1:1 binding model, brackets = 68.3% confidence interval, read-out: KD of FITC-Aβ42 and D3 in low ionic strength buffer): 88 nM
